Results reported in patent US8586579B2, “Anellated pyridine compounds” (Hoffmann-La Roche Inc., priority 2010, dated 2013).
Read-outs that look alike come from different tables or passages of the source.

How the values were obtained:
human 5-HT2A receptor = human 5-HT2A receptor (Homo sapiens (Human), UniProt P28223); experiment: Radioligand binding assay, [3H]-ketanserin, human 5-HT2A receptor
Method: (§1) HEK293 EBNA cells were transiently transfected with expression plasmids encoding for the human D2 or D3 or for the human 5-HT2A receptor, respectively. The cells were harvested 48 h post-transfection, washed three times with cold PBS and stored at −80° C. prior to use. The pellet was suspended in cold 50 mM Tris-HCl buffer comprising 10 mM EDTA (pH 7.4) and was homogenized with a Polytron (Kinematica AG, Basel, Switzerland) for 20-30 sec at 12.000 rpm. After centrifugation at 48.000×g for 30 min at 4° C., the pellet was resuspended in cold 10 mM Tris-HCl buffer comprising 0.1 mM EDTA (pH 7.4), homogenized, and centrifuged as above. This pellet was further resuspended in a smaller volume of ice cold 10 mM Tris-HCl buffer comprising 0.1 mM EDTA (pH 7.4) and homogenized with a Polytron for 20-30 sec at 12.000 rpm. The protein content of this homogenate was determined with the Bio-Rad (Bradford) Protein Assay (Biorad Laboratories GmbH, München, Germany) according to the instructions of the manufacturer using gamma globulin as the standard. This homogenate was stored at −80° C. in aliquots and thawed immediately prior to use.
(§2) Aliquots of membrane preparations were thawed at RT, resuspended in assay buffer (D2, D3: 50 mM Tris-HCl, 120 mM NaCl, 5 mM MgCl2, 1 mM EDTA, 5 mM KCl, 1.5 mM CaCl2, pH=7.4; 5-HT2A: 50 mM Tris-HCl, 10 mM MgCl2, 1 mM EGTA, pH=7.4), homogenized with a Polytron for 20-30 sec at 12.000 rpm and adjusted to a final concentration of approximately 7.5 μg protein/well (D2, D3) and 15 μg protein/well (5-HT2A), respectively.
(§3) The binding affinity (Ki) of the compounds was determined using radioligand binding. Membranes were incubated in a total volume of 200 μl with a fixed concentration of radioligand (final concentration approximately 0.7 nM [^3H]-spiperone for D2, 0.5 nM [^3H]-spiperone for D3, and 1.1 nM [^3H]-ketanserin for 5-HT2A) and ten concentrations of test compound in ranging between 10 μM-0.1 nM for 1 h at RT. […] The nonspecific binding was determined with equally composed reaction mixtures in the presence of 10 μM unlabelled spiperone. Per well 45 μl of Microscint 40 (Perkin Elmer, Schwerzenbach, Switzerland) was added, plates for sealed, shaken for 20 min and counted for 3 min on a Topcount Microplate Scintillation Counter (Can berra Packard SA, Zürich, Switzerland) with quenching correction.
(§4) The CPM value for each duplicate of a concentration of competing compound was averaged (y1), then the % specific binding was calculated according to the equation (((y1−non-specific)/(total binding−non-specific))×100). Graphs were plotted with the % specific binding using XLfit, a curve fitting program that iteratively plots the data using Levenberg-Marquardt algorithm. The single site competition analysis equation used was y=A+((B−A)/(1+((x/C)D))), where y is the % specific binding, A is the minimum y, B is the maximum y, C is the IC50, x is the log 10 of the concentration of the competing compound and D is the slope of the curve (the Hill Coefficient). […] The affinity constant (K) was calculated using the Cheng-Prusoff equation Ki=(IC50/1+([L]/Kd), where [L] is the concentration of radioligand and Kd is the dissociation constant of the radioligand at the receptor as determined by the saturation isotherm.

human D2 receptor = human D2 receptor (Homo sapiens (Human), UniProt P14416); experiment: Radioligand binding assay, [3H]-spiperone, human D2 receptor; details: membranes of HEK293 EBNA cells expressing human D2; 0.7 nM [3H]-spiperone
Sequence of human D2 receptor (P14416 whole entry): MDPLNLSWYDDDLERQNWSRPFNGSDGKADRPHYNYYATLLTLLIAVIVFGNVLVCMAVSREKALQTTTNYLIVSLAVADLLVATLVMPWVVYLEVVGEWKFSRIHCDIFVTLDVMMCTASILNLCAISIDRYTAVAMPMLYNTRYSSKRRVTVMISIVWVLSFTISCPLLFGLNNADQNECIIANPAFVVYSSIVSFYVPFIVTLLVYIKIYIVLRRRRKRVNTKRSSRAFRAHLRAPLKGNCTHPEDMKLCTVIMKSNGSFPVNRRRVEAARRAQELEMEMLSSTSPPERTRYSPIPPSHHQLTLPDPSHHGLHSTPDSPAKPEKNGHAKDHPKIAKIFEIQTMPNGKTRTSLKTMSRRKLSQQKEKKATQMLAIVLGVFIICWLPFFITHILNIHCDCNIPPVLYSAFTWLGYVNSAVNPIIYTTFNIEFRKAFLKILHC
Method: as §1, §2, §3
as §4, with “algorithm.” for “algorithm. The single site competition analysis equation used was y=A+((B−A)/(1+((x/C)D))), where y is the % specific binding, A is the minimum y, B is the maximum y, C is the IC50, x is the log 10 of the concentration of the competing compound and D is the slope of the curve (the Hill Coefficient).”

human D3 receptor = human D3 receptor (Homo sapiens (Human), UniProt P35462); experiment: Radioligand binding assay, [3H]-spiperone, human D3 receptor; details: membranes of HEK293 EBNA cells expressing human D3; 0.5 nM [3H]-spiperone
Sequence of human D3 receptor (P35462 whole entry): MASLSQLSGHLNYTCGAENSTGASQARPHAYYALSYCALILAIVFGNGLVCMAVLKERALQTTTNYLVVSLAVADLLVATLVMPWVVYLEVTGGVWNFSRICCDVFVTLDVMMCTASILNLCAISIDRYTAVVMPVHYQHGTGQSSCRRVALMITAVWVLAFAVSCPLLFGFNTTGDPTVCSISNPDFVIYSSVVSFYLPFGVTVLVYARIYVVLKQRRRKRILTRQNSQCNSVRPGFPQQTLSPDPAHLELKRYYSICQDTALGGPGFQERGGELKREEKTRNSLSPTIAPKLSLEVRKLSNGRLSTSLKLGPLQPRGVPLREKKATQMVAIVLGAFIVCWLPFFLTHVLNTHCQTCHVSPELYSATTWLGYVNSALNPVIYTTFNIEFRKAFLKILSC
Method: as §1, §2, §3, §4

[1] = membranes of HEK293 EBNA cells expressing human 5-HT2A, 1.1 nM [3H]-ketanserin

Sequence of human 5-HT2A receptor (P28223 whole entry): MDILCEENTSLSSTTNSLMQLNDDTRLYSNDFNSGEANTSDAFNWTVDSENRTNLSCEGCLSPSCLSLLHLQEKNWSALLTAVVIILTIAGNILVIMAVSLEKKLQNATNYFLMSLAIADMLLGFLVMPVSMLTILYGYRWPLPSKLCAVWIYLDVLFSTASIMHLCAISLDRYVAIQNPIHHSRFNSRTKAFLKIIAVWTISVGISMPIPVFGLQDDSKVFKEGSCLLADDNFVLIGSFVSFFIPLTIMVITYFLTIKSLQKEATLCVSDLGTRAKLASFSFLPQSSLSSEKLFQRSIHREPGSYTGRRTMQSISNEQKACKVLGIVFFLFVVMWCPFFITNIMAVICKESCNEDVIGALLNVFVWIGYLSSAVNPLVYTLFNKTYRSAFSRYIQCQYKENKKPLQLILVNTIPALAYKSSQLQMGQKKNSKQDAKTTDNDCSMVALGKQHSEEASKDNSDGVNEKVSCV

SMILES | Ki (human 5-HT2A receptor; [1]) [nM] | Ki (human D2 receptor) [nM] | melting point [°C] | Ki (human D3 receptor) [nM] | Ki (human 5-HT2A receptor) [nM]
O=C(CC1COCCO1)N[C@H]1CC[C@H](CCN2CCN(c3nccc4c3CCO4)CC2)CC1 (mixture of isomers) [Example 37, trans-N-(4-{2-[4-(2,3-Dihydrofuro[3,2-c]pyridin-4-yl)-piperazin-1-yl]-ethyl}-cyclohexyl)-2-(rac-1,4-dioxan-2-yl)-acetamide] | 9.7 | 1470 | 186 |  | 
O=C(N[C@H]1CC[C@H](CCN2CCN(c3nccc4c3CCO4)CC2)CC1)C1CCOC1 (mixture of isomers) [Example 42, trans-N-(4-{2-[4-(2,3-Dihydrofuro[3,2-c]pyridin-4-yl)-piperazin-1-yl]-ethyl}-cyclohexyl)-rac-tetrahydrofuran-3-carboxamide] | 9.9 | 609 | 208.5 | 18.2 | 
O=C(N[C@H]1CC[C@H](CCN2CCN(c3nccc4c3CCO4)CC2)CC1)C1CCCO1 (mixture of isomers) [Example 43, trans-N-(4-{2-[4-(2,3-Dihydrofuro[3,2-c]pyridin-4-yl)-piperazin-1-yl]-ethyl}-cyclohexyl)-rac-tetrahydrofuran-2-carboxamide] | 6.3 |  | 176.5 |  | 
O=C(N[C@H]1CC[C@H](CCN2CCN(c3nccc4c3CCO4)CC2)CC1)C1CCCOC1 (mixture of isomers) [Example 53, rac-Tetrahydro-pyran-3-carboxylic acid trans-(4-{2-[4-(2,3-dihydro-furo[3,2-c]pyridin-4-yl)-piperazin-1-yl]-ethyl}-cyclohexyl)-amide] |  |  | 216 | 28.8 | 
O=C(N[C@H]1CC[C@H](CCN2CCN(c3nccc4c3CCO4)CC2)CC1)C(O)C(F)(F)F (mixture of isomers) [Example 112, trans-(RS)—N-(4-{2-[4-(2,3-Dihydro-furo[3,2-c]pyridin-4-yl)-piperazin-1-yl]-ethyl}-cyclohexyl)-3,3,3-trifluoro-2-hydroxy-propionamide] |  |  | 204 | 37.9 | 
COCC(=O)N[C@H]1CC[C@H](CCN2CCN(c3nccc4sccc34)CC2)CC1 [Example 22, 2-Methoxy-N-{trans-4-[2-(4-thieno[3,2-c]pyridin-4-yl-piperazin-1-yl)-ethyl]-cyclohexyl}-acetamide] | 2.2 | 220 |  | 3.2 | 
O=C(CC1CCOCC1)N[C@H]1CC[C@H](CCN2CCN(c3nccc4sccc34)CC2)CC1 [Example 23, 2-(Tetrahydro-pyran-4-yl)-N-{trans-4-[2-(4-thieno[3,2-c]pyridin-4-yl-piperazin-1-yl)-ethyl]-cyclohexyl}-acetamide] | 3 | 144 |  | 2.7 | 
O=C(N[C@H]1CC[C@H](CCN2CCN(c3nccc4sccc34)CC2)CC1)C1CCOCC1 [Example 24, Tetrahydro-pyran-4-carboxylic acid {trans-4-[2-(4-thieno[3,2-c]pyridin-4-yl-piperazin-1-yl)-ethyl]-cyclohexyl}-amide] |  | 992 |  | 3.6 | 1.7
CO[C@@H]1CC[C@@H](CC(=O)N[C@H]2CC[C@H](CCN3CCN(c4nccc5sccc45)CC3)CC2)C1 [Example 25, 2-((1R,3R)-3-Methoxy-cyclopentyl)-N-{trans-4-[2-(4-thieno[3,2-c]pyridin-4-yl-piperazin-1-yl)-ethyl]-cyclohexyl}-acetamide] | 4.9 | 234 |  | 2.7 | 
CO[C@H]1CC[C@H](CC(=O)N[C@H]2CC[C@H](CCN3CCN(c4nccc5sccc45)CC3)CC2)C1 [Example 26, 2-((1S,3S)-3-Methoxy-cyclopentyl)-N-{trans-4-[2-(4-thieno[3,2-c]pyridin-4-yl-piperazin-1-yl)-ethyl]-cyclohexyl}-acetamide] | 4.3 | 246 |  | 3 | 
O=C(CO)N[C@H]1CC[C@H](CCN2CCN(c3nccc4sccc34)CC2)CC1 [Example 27, 2-Hydroxy-N-{trans-4-[2-(4-thieno[3,2-c]pyridin-4-yl-piperazin-1-yl)-ethyl]-cyclohexyl}-acetamide] | 1.4 | 218 |  | 1.4 | 
O=C(C[C@H]1CC[C@H](O)CC1)N[C@H]1CC[C@H](CCN2CCN(c3nccc4sccc34)CC2)CC1 [Example 28, 2-(trans-4-Hydroxy-cyclohexyl)-N-{trans-4-[2-(4-thieno[3,2-c]pyridin-4-yl-piperazin-1-yl)-ethyl]-cyclohexyl}-acetamide] | 4 | 392 |  | 6 | 
O=C(N[C@H]1CC[C@H](CCN2CCN(c3nccc4occc34)CC2)CC1)c1ccnc2ccccc12 [Example 29, Quinoline-4-carboxylic acid {trans-4-[2-(4-furo[3,2-c]pyridin-4-yl-piperazin-1-yl)-ethyl]-cyclohexyl}-amide] | 5.3 | 461 |  | 23.2 | 
CS(=O)(=O)N[C@H]1CC[C@H](CCN2CCN(c3nccc4sccc34)CC2)CC1 [Example 30, N-{trans-4-[2-(4-Thieno[3,2-c]pyridin-4-yl-piperazin-1-yl)-ethyl]-cyclohexyl}-methanesulfonamide] | 2.9 | 265 |  | 4.3 | 
CCS(=O)(=O)N[C@H]1CC[C@H](CCN2CCN(c3nccc4sccc34)CC2)CC1 [Example 31, Ethanesulfonic acid {trans-4-[2-(4-thieno[3,2-c]pyridin-4-yl-piperazin-1-yl)-ethyl]-cyclohexyl}-amide] | 2.9 | 217 |  | 4.3 | 
O=C(C[C@@H]1COCCO1)N[C@H]1CC[C@H](CCN2CCN(c3nccc4c3CCO4)CC2)CC1 [Example 61, trans-N-(4-{2-[4-(2,3-Dihydro-furo[3,2-c]pyridin-4-yl)-piperazin-1-yl]-ethyl}-cyclohexyl)-2-(R)-[1,4]dioxan-2-yl-acetamide] | 11.8 | 1120 | 193.5 |  | 
O=C(N[C@H]1CC[C@H](CCN2CCN(c3nccc4c3CCO4)CC2)CC1)c1ccnc2ccccc12 [Example 62, Quinoline-4-carboxylic acid trans-(4-{2-[4-(2,3-dihydro-furo[3,2-c]pyridin-4-yl)-piperazin-1-yl]-ethyl}-cyclohexyl)-amide] | 3.62 |  | 210 | 10.7 | 
O=C(C[C@H]1COCCO1)N[C@H]1CC[C@H](CCN2CCN(c3nccc4c3CCO4)CC2)CC1 [Example 67, trans-N-(4-{2-[4-(2,3-Dihydro-furo[3,2-c]pyridin-4-yl)-piperazin-1-yl]-ethyl}-cyclohexyl)-2-(S)-[1,4]dioxan-2-yl-acetamide] | 8.15 | 1460 | 192 |  | 
O=C(N[C@H]1CC[C@H](CCN2CCN(c3nccc4c3CCO4)CC2)CC1)c1ccc(Cl)cc1Cl [Example 132, trans-2,4-Dichloro-N-(4-{2-[4-(2,3-dihydro-furo[3,2-c]pyridin-4-yl)-piperazin-1-yl]-ethyl}-cyclohexyl)-benzamide] | 21.7 |  | 203.5 | 26.7 | 
